# Measurements taken from ChEMBL document CHEMBL3507680, “University of Dundee, Gates Library screen for HepG2 cell viability”.
# Assay: Human HepG2 cell viability assay in 384 well format
# Assay type: toxicity, cell-based
# Set-up: dose 125 nL, time 70.5 hour; cytotoxicity at 70.5 h: concentration not given beside the values
# Details: HepG2 cells, read-out: Inhibition
row,SMILES,cytotoxicity at 70.5 h
1,O=C(NS(=O)(=O)c1ccccc1)c1ccccc1F,-4.29%
2,COCCN(CC1CCCN(C2Cc3ccccc3C2)C1)C(=O)CSC (configuration not stated),-2.79%
3,CC(O)CNCc1ccccc1C(F)(F)F (configuration not stated),-5.36%
4,CC(C)c1cc(C(=O)N2CCN(c3cccc(C(=O)O)c3)CC2)n(C)n1,-13.2%
5,CCc1cc(CN(C)C(=O)c2cc(=O)[nH]c(=O)[nH]2)on1,-9.27%
6,O=C1NCCCC12CCN(Cc1ccc(-c3ccccc3)s1)C2 (configuration not stated),7.11%
7,CCc1ccc(-c2cn(CCSc3ncn[nH]3)nn2)nc1,-1.59%
8,CCC(=O)Nc1cccc(OCC(=O)N(C)Cc2ccon2)c1,8.51%
9,CC(C)N(CCNc1nc(C2CCCC2)nc2c1cnn2C)C(C)C,-1.41%
10,COc1cccc(CC2(CO)CCCN(c3nccs3)C2)c1 (configuration not stated),-1.79%
11,Cc1nc2ccc(-n3ncnc3[C@@H]3CCCN3S(C)(=O)=O)cc2s1,12.3%
12,Cc1cnc(C(=O)N2CCc3c(nc(-c4ccncc4)[nH]c3=O)C2)cn1,-3.01%
13,CN(Cc1ccccc1)c1cnn(CC2CCCCO2)c(=O)c1 (configuration not stated),-4.54%
14,CCc1cnc(C)nc1N(C)CCCc1cnn(C)c1,-12.1%
15,Cc1nc(CN2CCC(NS(C)(=O)=O)CC2)co1,-9.09%
16,NCC1Cc2cc(F)cc(-c3cnccn3)c2O1 (configuration not stated),-3.38%
17,Cc1c(C(=O)N2CCC3(CCCN(CC4CC4)C3=O)C2)ccn1C (configuration not stated),15.8%
18,Nc1nc(CNc2ncnc3c2CCN(Cc2ccoc2)CC3)cs1,29%
19,CC(C)Cc1nnc(SCC(=O)O)n1-c1ccc(F)cc1F,5.45%
20,CN(C)C(C(=O)NCC1(C)COC1)c1cccc(F)c1 (configuration not stated),-3.06%
21,CCCc1cncnc1N1CCC2(CCC(=O)N(CCOC)C2)CC1,13.2%

row,SMILES,cytotoxicity at 70.5 h
1,Cc1ccccc1C(CNc1ncnc2c1CCNCC2)N(C)C (configuration not stated),5.24%
2,O=C(NC1CCCN(CCCc2ccccc2)C1)c1ccncc1 (configuration not stated),-2.32%
3,CSc1ccccc1CN1C[C@@H]2CC[C@H](C1)N(CC1CC1)C2=O,26.6%
4,CC(=O)N[C@@H]1Cc2ccccc2[C@H]1Nc1nnc(C2CC2)o1,-7.5%
5,Cc1ccc(OCCN(C)C(=O)CCCN2CCCC2=O)c(C)c1,-5.15%
6,CN(C)S(=O)(=O)NCc1cccnc1Oc1ccc(F)cc1F,-3.42%
7,CN(C)C(=O)CN1CCc2onc(-c3ccccc3F)c2C1,48.8%
8,COCc1cc(CNC(=O)c2c(C)cc(C)[nH]c2=O)n[nH]1,-1.97%
9,CC(CCc1ccccc1)NC(=O)CN1CCOCC1 (configuration not stated),-3.3%
10,O=C(c1cn(CCN2CCCCC2)nn1)N1CCSCC1,-1.47%
11,CCOCc1nc2c(c(N3CC=CC3)n1)CCN(C1CCOCC1)CC2,0.826%
12,CCc1nc(N2CCN(c3ncccn3)CC2)c2cnn(C)c2n1,-5.59%
13,Cc1nc(O)cc(C2CCCN(Cc3c(Cl)cncc3Cl)C2)n1 (configuration not stated),-8.65%
14,O=C(CCCn1nnc(-c2ccc(F)cc2)n1)N1CCOCC(CO)C1 (configuration not stated),23.7%
15,CC(Cn1cncn1)NCCN1CCc2ccccc21 (configuration not stated),-5.52%
16,O=C1C[C@H]2CC[C@@H](CN1)N2C(=O)CCc1ccsc1,-9.38%
17,Cc1noc(C)c1CN1C[C@@H](C(=O)O)[C@H](C(C)C)C1,-10%
18,Fc1ccc(C2CCCCN2Cc2cc(-c3ccccn3)no2)cc1 (configuration not stated),17.8%
19,CN(Cc1nc(C2CC2)no1)C(=O)c1cccc(CC2CCNCC2)c1,-5.09%
20,CN(C)C(=O)NCc1cc2n(n1)CCCN(C[C@H]1[C@@H]3CNC[C@@H]31)C2,-0.846%
21,COC(=O)c1sccc1S(=O)(=O)N1CCc2c(ncnc2N(C)C)C1,-1.11%

row,SMILES,cytotoxicity at 70.5 h
1,CC(C)=Cc1c(-c2ccccc2)ncn1CCS(C)(=O)=O,7.25%
2,COc1ccc(O)c(C(=O)NCC2CCCN(C3CCOCC3)C2)c1 (configuration not stated),-10.8%
3,Cn1ccnc1CN1CCC(c2nc3ccccc3n2C)CC1,28.7%
4,CNCCCNc1nc(C2CCCC2)nc2c1cnn2C,2.51%
5,Cc1nnc(CN2C[C@H]3CC[C@@H]2CN(C2Cc4ccccc4C2)C3)o1,4.16%
6,Cc1ccc(N2CCN(C(=O)CCC(F)(F)F)C(C)C2)cc1 (configuration not stated),-18.6%
7,Cc1nn(CCNC(C)Cn2ccnc2)c(C)c1Cl (configuration not stated),-1.29%
8,CN1CCCN(S(=O)(=O)c2cccc(C(=O)N3CCCCCC3)c2)CC1,-7.86%
9,O=C(c1coc(CN2CCN(c3ccccc3F)CC2)n1)N1CCCC1,5.68%
10,CN1CCN(Cc2nnc(C3CCN(C4CCCCC4)CC3)n2C)CC1,-27.4%
11,CN(CC1=CCCN(CCc2ccccn2)C1)C(=O)c1ccco1,-9.19%
12,CN(CCc1noc(C2CC2)n1)C(=O)C1(N2CCCC2)CCCC1,-3.64%
13,COC(=O)c1cccnc1N1CCC(Oc2cccc(F)c2)CC1,1.14%
14,Cc1nc(C2CCN(CC(=O)NC3CC3)CC2)cc(N2CCOCC2)n1,-0.642%
15,c1ncn(Cc2nnc(C3CCN(CC4CC4)CC3)n2C2CC2)n1,-15.3%
16,CN(Cc1cnc(C(C)(C)C)nc1)Cc1nc2ccc(F)cc2[nH]1,-5.62%
17,COc1ccc(CN2C[C@@H]3CC[C@H](C2)N(Cc2snnc2C)C3)cc1,49%
18,NCCN1CCC(c2nnc(Cn3ccnc3)n2C2CC2)CC1,-3.91%
19,CCCc1cnc(C)nc1N1CCC2(CC1)CNC(=O)O2,10.5%
20,CC1(C)CNC(=O)c2nc(CCN3CCC(C(N)=O)CC3)[nH]c2C1,-11.8%
21,O=C(c1ccc[nH]1)N1CCN(CC2CCOc3ccccc3C2)CC1 (configuration not stated),16.4%

row,SMILES,cytotoxicity at 70.5 h
1,CN(Cc1ccc(F)cc1)CC1(O)CCCN(CC(C)(C)C)C1=O (configuration not stated),-6.42%
2,CS(=O)(=O)NCc1cc2n(n1)CCCN(Cc1cccc(C#N)c1)C2,-9.28%
3,Cc1cc(N2CCC(c3nnc(CN(C)C)n3C3CC3)CC2)ccn1,18.3%
4,CCOc1ncccc1C(=O)N1CCCC(c2nccn2CCOC)C1 (configuration not stated),-9.63%
5,CCCS(=O)(=O)c1ncc(CN2CCC(CO)CC2)n1CC1CCCO1 (configuration not stated),-4.07%
6,N#Cc1ccccc1C(=O)N1C[C@H](CO)C[C@H](CN2CCCC2)C1,-8.82%
7,CN(C)c1ccccc1C(=O)N1C[C@@H](CN2CCCCC2)[C@@H](CO)C1,-3.58%
8,CN(C)C(=O)N1CCN(C(=O)C(c2ccccc2F)N(C)C)CC1 (configuration not stated),-4.32%
9,COCCCn1c(CN2CCCC(O)C2)cnc1S(=O)(=O)C1CCCC1 (configuration not stated),-5.61%
10,COCc1nc(CNC2CCSCC2)no1,-8.13%
11,CCn1ncnc1C(C)NC(=O)C1CCN(C(=O)COC)CC1 (configuration not stated),-8.09%
12,COc1ccc(CN2CCC(O)CC2)c(OC)c1,-6.19%
13,CCS(=O)(=O)c1ncc(CN(C)Cc2ccccn2)n1CCOC,-5.34%
14,CCOCCn1nc(C)cc1C(=O)N1CCOCC(CO)C1 (configuration not stated),12%
15,COc1ccccc1OC1CCN(Cc2cnc(N(C)C)nc2)CC1,-7.45%
16,CS(=O)(=O)N1CCC(Oc2ccc(C(=O)N3CCSCC3)cc2Cl)CC1,0.994%
17,O=S(=O)(Cc1ccccc1)NCc1ccco1,-5.52%
18,CCn1ccnc1CN1C[C@@H](CN2CCCC2)[C@@H](CO)C1,-0.818%
19,OC(CNCc1ccccc1C(F)(F)F)c1ccccc1 (configuration not stated),-5.57%
